Test results as given in ChEMBL document CHEMBL1127773, “Inhibition of steroid 5-reductase by inverted, competitive inhibitors” (Bioorg Med Chem Lett, 1994).

The molecules below were run against T1, 3-oxo-5-alpha-steroid 4-dehydrogenase 2 (Homo sapiens, UniProt P31213) (assay: Inhibitory activity against human prostatic Steroid 5-alpha-reductase).
T1 sequence (P31213 whole entry): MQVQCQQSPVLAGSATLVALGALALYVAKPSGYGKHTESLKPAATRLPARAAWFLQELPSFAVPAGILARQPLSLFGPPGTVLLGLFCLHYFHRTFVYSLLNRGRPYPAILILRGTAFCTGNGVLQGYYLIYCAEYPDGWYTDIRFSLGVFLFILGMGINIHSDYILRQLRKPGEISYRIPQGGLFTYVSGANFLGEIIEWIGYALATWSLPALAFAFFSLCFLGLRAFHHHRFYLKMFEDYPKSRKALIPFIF

| SMILES | IC50 [µM] |
| --- | --- |
| CC(C)N(C(=O)[C@@H]1CC2CCC3C(CC[C@@]4(C)C3CCC(=O)N4C)[C@@]2(C)C1)C(C)C (stereo partly drawn) | 40 |
| CN1C(=O)CCC2C3CC[C@H]4CC(=O)CC[C@]4(C)C3CC[C@@]21C (stereo partly drawn) | 15 |
| CN1C(=O)CCC2C3CCC4[C@@H](O)CC[C@]4(C)C3CC[C@@]21C (stereo partly drawn) | 12 |
| CC(C)N(C(=O)[C@@H]1C[C@@H]2CCC3C4CCC(=O)N(C)[C@@]4(C)CCC3[C@@]2(C)C1)C(C)C (stereo partly drawn) | > 100 |
| CN1C(=O)CCC2C3CC[C@H]4C[C@@H](O)CC[C@]4(C)C3CC[C@@]21C (stereo partly drawn) | 4 |
| CN1C(=O)CC[C@@]2(C)C1CC[C@H]1[C@@H]3CC[C@H](O)[C@@]3(C)CC[C@@H]12 (stereo partly drawn) | > 0.43 |
| CCN(CC)C(=O)[C@H]1CC[C@H]2[C@@H]3CC[C@H]4N(C)C(=O)CC[C@]4(C)[C@H]3CC[C@]12C | 0.0086 |
| CN1C(=O)CCC2C3CC=C4C[C@@H](O)CC[C@]4(C)C3CC[C@@]21C (stereo partly drawn) | 32 |
